Read-outs that look alike come from different tables or passages of the source. Non-standard residues stand in square brackets, D forms with d. Residues, ends and D or L forms follow the SMILES beside them. Aib = CC(C)(N)C(=O)O
Columns and labels:
[1] = Chemical stability by RP-HPLC (% main peak); format: physicochemical; conditions: for 4° C. % Main Peak / 30° C. % Main Peak / 40° C. % Main Peak: 4 weeks; for % Main Peak Day 0: RP-HPLC
Procedure: (§1) The compound of SEQ ID NO: 2 is dissolved in H2O to a 10 mg/mL concentration (peptide content), filtered through a 0.22 μm filter (Millex, SLGV004SL), and then diluted to 1 mg/mL in Buffer P5 (10 mM Histidine, 150 mM NaCl in H2O, pH 5.0) or Buffer P6 (10 mM Histidine, 150 mM NaCl in H2O, pH 6.0). Each solution is transferred to three vials and autoclaved. Samples are then maintained at 4° C., 30° C. and 40° C. Samples are visually assessed at different time points for turbidity and phase separation. Stability of the compound is assessed by analytical reverse phase HPLC (RP-HPLC) on a Phenomenex Aeris Widepore, 3.6 μm, XB-C18 4.6×100 mm column (P/NO 00D-4482-E0) heated at 60° C. with a AB (A=0.05% TFA/H2O; B=0.04% TFA/acetonitrile) gradient of 5% B isocratic over 5 min, 5 to 25% B over 20 minutes, 25 to 30% B over 30 min, and 30 to 45% B over 10 min with a flow rate of 1.2 mL/min (wavelength of 220 ηm).
The compound of SEQ ID NO: 2 also maintains chemical stability at pH 5 (Buffer P5) and pH 6 (Buffer P6) when maintained at 4° C., 30° C. and 40° C. for 4 weeks.

[2] = format: physicochemical
Procedure: as §1

C57/Bl6 male mice = experiment: Effects on blood glucose levels in C57/Bl6 male mice; format: in vivo; conditions: for Blood glucose levels: mean±SEM of 4 mice
Procedure: To determine the effects of the compound of SEQ ID NO: 2 on blood glucose levels, the compound is administered to C57/Bl6 mice. Three month old male C57BL6 mice (Harlan Laboratories) are used Animals are individually housed in a temperature-controlled (24° C.) facility with a 12 hour light/dark cycle, and have free access to food and water. After 1 week acclimation to the facility, mice are randomized to treatment groups (n=4/group). Test compound is formulated in Buffer 2 (see Physical stability test using Thioflavin T binding assay). On the morning of test, food is removed at 08:00 AM. Two hours after food is removed, the test compound is given subcutaneously at 0, 1, 3 or 10 μg/kg doses. Blood glucose is measured at time 0, 15, 30, 60 and 120 minutes after test compound administration with an ACCU-CHECK® (Roche Diagnostics) glucometer. […] Results are expressed as mean±standard error mean (SEM) of 4 mice per group.
Blood glucose levels at 10 μg/kg of compound of SEQ ID NO: 2 is taken as the maximum value.

[3] = Physical stability test using Thioflavin T binding assay (fibrillation); format: physicochemical; conditions: 25° C.; for Thioflavin T fluorescence t = 0 h / Thioflavin T fluorescence t = 40 h / Thioflavin T fluorescence t = 120 h: 1 mg/mL, 300 rpm
Procedure: Fibrillation is a common problem when glucagon is formulated in aqueous solution. To assess the level of fibrillation of the compound of the present invention, a Thioflavin T binding assay is performed.
All samples are mechanically stressed at 25° C. in a magnetic stir plate set at 300 rpm. […] Raw data is collected with Softmax Pro 5.4.1 (Molecular Devices) and imported to Excel.

[4] = Buffer 1 (20 mM Histidine, pH 6.0)
[5] = Buffer 2 (10 mM Histidine, 150 nM NaCl, pH 6.0)
[6] = Buffer 3 (10 mM Histidine, 300 mM sorbitol, pH 6.0)
[7] = Buffer 4 (10 mM Histidine, 0.02% Tween 80, pH 6.0)
[8] = Buffer 5 (10 mM Histidine, 300 mM Arginine, pH 6.0)
[9] = Buffer 6 (10 mM Histidine, 300 mM sucrose, pH 6.0)

4° C. % Main Peak ([1]; Buffer P5 (pH 5.0)): 98.01%
30° C. % Main Peak ([1]; Buffer P5 (pH 5.0)): 97.07%
40° C. % Main Peak ([1]; Buffer P5 (pH 5.0)): 92.64%
% Main Peak Day 0 ([1]; Buffer P5 (pH 5.0)): 99.55%
4° C. % Main Peak ([1]; Buffer P6 (pH 6.0)): 98.60%
30° C. % Main Peak ([1]; Buffer P6 (pH 6.0)): 97.71%
40° C. % Main Peak ([1]; Buffer P6 (pH 6.0)): 95.00%
% Main Peak Day 0 ([1]; Buffer P6 (pH 6.0)): 99.02%
main peak changes ([1]; pH 5 (Buffer P5), after 4 weeks at 30° vs. 4° C.): less than 1%
main peak changes ([1]; pH 5 (Buffer P5), after 4 weeks at 40° C. vs. 4° C.): less than 6%
main peak changes ([1]; pH 6 (Buffer P6), after 4 weeks at 30° vs. 4° C.): less than 1%
main peak changes ([1]; pH 6 (Buffer P6), after 4 weeks at 40° C. vs. 4° C.): less than 4%
solubility by visual assessment and RP-HPLC [2]: maintains good solubility
30° C. vs 4° C. Recovery 4 wk ([2]; Buffer P5 (pH 5.0)): 100%
40° C. vs 4° C. Recovery 4 wk ([2]; Buffer P5 (pH 5.0)): 100%
30° C. vs 4° C. Recovery 4 wk ([2]; Buffer P6 (pH 6.0)): 100%
40° C. vs 4° C. Recovery 4 wk ([2]; Buffer P6 (pH 6.0)): 101%
4° C. Total Peak Area 4 wk ([2]; pH 5): 4933
30° C. Total Peak Area 4 wk ([2]; pH 5): 4932
40° C. Total Peak Area 4 wk ([2]; pH 5): 4932
4° C. Total Peak Area 4 wk ([2]; pH 6): 4918
30° C. Total Peak Area 4 wk ([2]; pH 6): 4911
40° C. Total Peak Area 4 wk ([2]; pH 6): 4960
fibrillation as measured by the Thioflavin T binding assay ([3]; pH 6, mechanical stress): did not demonstrate fibrillation
Thioflavin T fluorescence t = 0 h [3, 4]: 74.6 fluorescence units
Thioflavin T fluorescence t = 40 h [3, 4]: 76.9 fluorescence units
Thioflavin T fluorescence t = 120 h [3, 4]: 89.2 fluorescence units
Thioflavin T fluorescence t = 0 h [3, 5]: 130.1 fluorescence units
Thioflavin T fluorescence t = 120 h [3, 5]: 137.0 fluorescence units
Thioflavin T fluorescence t = 40 h ([3]; Buffer 2 (10 mM Histidine, NaCl, pH 6.0)): 137.3 fluorescence units
Thioflavin T fluorescence t = 0 h [3, 6]: 68.1 fluorescence units
Thioflavin T fluorescence t = 40 h [3, 6]: 71.4 fluorescence units
Thioflavin T fluorescence t = 120 h [3, 6]: 72.4 fluorescence units
Thioflavin T fluorescence t = 0 h [3, 7]: 51.9 fluorescence units
Thioflavin T fluorescence t = 40 h [3, 7]: 56.2 fluorescence units
Thioflavin T fluorescence t = 120 h [3, 7]: 57.4 fluorescence units
Thioflavin T fluorescence t = 0 h [3, 8]: 113.9 fluorescence units
Thioflavin T fluorescence t = 40 h [3, 8]: 120.0 fluorescence units
Thioflavin T fluorescence t = 120 h [3, 8]: 123.2 fluorescence units
Thioflavin T fluorescence t = 0 h [3, 9]: 78.0 fluorescence units
Thioflavin T fluorescence t = 40 h [3, 9]: 74.1 fluorescence units
Thioflavin T fluorescence t = 120 h [3, 9]: 88.9 fluorescence units
SMILES: CC(C)C[C@H](NC(=O)[C@H](Cc1c[nH]c2ccccc12)NC(=O)[C@H](CCC(=O)O)NC(=O)[C@@H](NC(=O)[C@H](Cc1ccccc1)NC(=O)[C@H](CCC(=O)O)NC(=O)[C@H](CCC(N)=O)NC(=O)[C@H](C)NC(=O)[C@H](CCCCN)NC(=O)[C@H](CCCCN)NC(=O)C(C)(C)NC(=O)[C@H](CC(=O)O)NC(=O)[C@H](CC(C)C)NC(=O)[C@H](Cc1ccc(O)cc1)NC(=O)[C@H](CCCCN)NC(=O)[C@H](CO)NC(=O)[C@H](Cc1ccc(O)cc1)NC(=O)[C@H](CC(=O)O)NC(=O)[C@H](CO)NC(=O)[C@H](CC(C)C)NC(=O)[C@H](Cc1ccccc1)NC(=O)[C@@H](NC(=O)CNC(=O)[C@H](CCC(N)=O)NC(=O)[C@H](C)NC(=O)[C@@H](N)Cc1c[nH]cn1)[C@@H](C)O)C(C)C)C(=O)N[C@@H](CC(C)C)C(=O)N[C@@H](CCCCN)C(=O)N[C@H](C(=O)NCC(=O)N1CCC[C@H]1C(=O)N[C@@H](CO)C(=O)N[C@@H](CO)C(=O)NCC(=O)N[C@@H](C)C(=O)N1CCC[C@H]1C(=O)N1CCC[C@H]1C(=O)N[C@@H](CCCCN)C(=O)N[C@@H](CO)C(=O)N[C@@H](CCCCN)C(N)=O)[C@@H](C)O [SEQ ID NO: 2] (H-HAQGTFLSDYSKYLD[Aib]KKAQEFVEWLLKTGPSSGAPPKSK-NH2)
Physical appearance ([2]; 1 mg/mL, Buffer P5 and P6, over 4 weeks): clear to colorless, with no opalescences and no particles
Blood glucose levels (C57/Bl6 male mice; 1 μg/kg subcutaneously, 0 minutes): 165.3 ± 16.7 mg/dL
Blood glucose levels (C57/Bl6 male mice; 1 μg/kg subcutaneously, 15 minutes): 212.0 ± 12.6 mg/dL
Blood glucose levels (C57/Bl6 male mice; 1 μg/kg subcutaneously, 30 minutes): 203.1 ± 13.1 mg/dL
Blood glucose levels (C57/Bl6 male mice; 1 μg/kg subcutaneously, 60 minutes): 169.9 ± 10.1 mg/dL
Blood glucose levels (C57/Bl6 male mice; 1 μg/kg subcutaneously, 120 minutes): 141.0 ± 4.2 mg/dL
Blood glucose levels (C57/Bl6 male mice; 3 μg/kg subcutaneously, 0 minutes): 148.0 ± 4.6 mg/dL
Blood glucose levels (C57/Bl6 male mice; 3 μg/kg subcutaneously, 15 minutes): 234.1 ± 9.8 mg/dL
Blood glucose levels (C57/Bl6 male mice; 3 μg/kg subcutaneously, 30 minutes): 242.1 ± 8.3 mg/dL
Blood glucose levels (C57/Bl6 male mice; 3 μg/kg subcutaneously, 60 minutes): 169.4 ± 7.3 mg/dL
Blood glucose levels (C57/Bl6 male mice; 3 μg/kg subcutaneously, 120 minutes): 148.2 ± 10.9 mg/dL
Blood glucose levels (C57/Bl6 male mice; 10 μg/kg subcutaneously, 0 minutes): 155.4 ± 10.1 mg/dL
Blood glucose levels (C57/Bl6 male mice; 10 μg/kg subcutaneously, 15 minutes): 270.0 ± 12.7 mg/dL
Blood glucose levels (C57/Bl6 male mice; 10 μg/kg subcutaneously, 30 minutes): 308.5 ± 2.6 mg/dL
Blood glucose levels (C57/Bl6 male mice; 10 μg/kg subcutaneously, 60 minutes): 212.4 ± 8.3 mg/dL
Blood glucose levels (C57/Bl6 male mice; 10 μg/kg subcutaneously, 120 minutes): 152.4 ± 1.5 mg/dL
ED50 (C57/Bl6 male mice; calculated on the 30 minute glucose measurements, 10 μg/kg taken as maximum, subcutaneous): 3.28 µg/kg
effect on blood glucose (C57/Bl6 male mice; subcutaneous, C57/Bl6 mice): able to increase blood glucose

— patent publication US9695225B2, “Peptide compound for treatment of severe hypoglycemia” (Eli Lilly and Company, priority 2013, dated 2017)
